Experimental data: patent publication US20240124503A1, “HETEROAROMATIC PHOSPHONIUM SALTS AND THEIR USE TREATING CANCER” (FLORATEK PHARMA S.A., priority 2021, published 2024)
Like-named read-outs stand apart in the source and are kept apart here.

Columns and labels:
Format in all cases: cell-based
CH-17-0091 = test: Cell viability, bile duct PDX CH-17-0091
Procedure: (§1) PDX-derived cell cultures were obtained from tumors explanted from mice and isolated by mechanical and enzymatic dissociation. […] Cells were harvested and seeded in 96-wells plates at a density of 1.25 to 5×10^3 cells/well for cytotoxicity assays. Cells were incubated 48 h at 37° C. prior to addition of test molecules and vehicle (DMSO, 0.1%) at desired final concentrations. Cell viability was assessed before drugs' addition (To) and 5 days after test molecules addition by measuring ATP cell content using CellTiter-Glo® Luminescent Cell Viability Assay (Promega) according to the manufacturer's instructions. Luciferase activity was measured on a luminometer (PerkinElmer® EnVision™). Each concentration of compounds was tested in triplicate.
(§2) Viability was calculated as a percentage of ATP value compared to vehicle treated controls.
(§3) For PDX primary cell cultures, the tumour tissue was washed with PBS containing antibiotic-antimycotic and non-tumour tissue and necrotic tumour tissues were separated. The tumour tissue was transferred to a new dish and cut into 1˜2 mm^3 fragments, resuspended in RPMI-1640 medium and centrifuged at 1,200 rpm for 6 min at room temperature. The pelleted material was resuspended with 15 mL of Tumour Cell Digestion Solution and incubated at 37° C. for 1 hour with agitation. […]

CH-17-0098 = test: Cell viability, bile duct PDX CH-17-0098
Procedure: as §1, §2, §3

SF-268 = test: Cell viability assay, SF-268; settings: brain carcinoma cell line SF-268
Procedure: (§4) Antitumor activity of the compounds and doxorubicin as a positive control was assessed by using the CellTiter-Blue Cell Viability Assay (Promega, #G8082) or CellTiter-Glow® Luminescent Cell Viability assay (Promega #G7572) according to the manufacturer's instructions. The compounds were tested at 5 or 6 concentrations in half-log increments (highest concentration 30 μM or 100 μM) in duplicate or triplicate well conditions.
(§5) Tumor cells were grown at 37° C. in a humidified atmosphere with 5% CO2 in RPMI 1640 or DMEM medium, supplemented with 10% (v/v) fetal calf serum and 50 μg/ml gentamicin for up to 20 passages, and were passaged once or twice weekly. Cells were harvested using TrypLE or PBS buffer containing 1 mM EDTA, and the percentage of viable cells was determined using a CASY Model TI cell counter (OMNI Life Science). Cells were harvested from exponential phase cultures, counted and plated in 96 well flat-bottom microtiter plates at a cell density depending on the cell line's growth rate (4,000-20,000 cells/well depending on the cell line's growth rate, up to 60,000 for hematological cancer cell lines) in RPMI 1640 or DMEM medium supplemented with 10% (v/v) fetal calf serum and 50 μg/ml gentamicin (140 μl/well). […] Viability of cells was quantified by the CellTiter-Blue® cell viability assay (Promega G8081) or CellTiter-Glow® Luminescent Cell Viability assay (Promega #G7572). […]

MDA-MB-468 = test: Cell viability assay, MDA-MB-468; settings: breast carcinoma cell line MDA-MB-468
Procedure: as §4, §5

BR-05-0014E = test: Cell viability, breast PDX BR-05-0014E
Procedure: as §1, §2, §3

HCT-116 = test: Cell viability assay, HCT-116; settings: colon carcinoma cell line HCT-116
Procedure: as §4, §5

LoVo = test: Cell viability assay, LoVo; settings: colon carcinoma cell line LoVo
Procedure: as §4, §5

KM-12 = test: Cell viability assay, KM-12; settings: colon carcinoma cell line KM-12
Procedure: as §4, §5

CO-04-0722 = test: Cell viability, colon PDX CO-04-0722
Procedure: as §1, §2, §3

ES-06-0002 = test: Cell viability, esophagus PDX ES-06-0002
Procedure: as §1, §2, §3

LU-01-0027 = test: Cell viability, lung PDX LU-01-0027
Procedure: as §1, §2, §3

LU-01-0604 = test: Cell viability, lung PDX LU-01-0604
Procedure: as §1, §2, §3

LU-01-0004 = test: Cell viability, lung PDX LU-01-0004
Procedure: as §1, §2, §3

LY-24-0340 = test: Cell viability, lymphoma PDX LY-24-0340
Procedure: as §1, §2
(§6) For PDX primary cell cultures, the tumour tissue was washed with PBS containing antibiotic-antimycotic and non-tumour tissue and necrotic tumour tissues were separated. The tumour tissue was transferred to a new dish and cut into 1˜2 mm^3 fragments, resuspended in RPMI-1640 medium and centrifuged at 1,200 rpm for 6 min at room temperature. The pelleted material was resuspended with 15 mL of Tumour Cell Digestion Solution and incubated at 37° C. for 1 hour with agitation. Following further addition of media, centrifugation and passage through a 70 μm cell strainer, the homogenous cell mixture was layered onto 15 mL of Ficoll-Paque PLUS in a 50 mL conical tube and centrifuged for 15 min at 1,600 rpm. The interface cells were collected, washed with media, separated by centrifugation at 1,200 rpm. The cell pellet was resuspended in serum free media supplemented with growth factors. 10,000 cells/wells were plated in a 96 well plate and incubated at 37° C., 5% CO2, 95% air and 100% relative humidity overnight. The cytotoxicity assay was conducted as above.
(§7) Sigmoidal concentration-response curves were fitted to the data points (test-versus-control, T/C values) obtained for each tumor model using GraphPad prism 5.02 software.

OVXF 899 = test: Cell viability assay, OVXF 899; settings: ovarian carcinoma OVXF 899
Procedure: as §4, §5

PC-07-0045 = test: Cell viability, pancreatic PDX PC-07-0045
Procedure: as §1, §2, §3

ONCap = test: Cell viability assay, ONCap; settings: prostate carcinoma cell line ONCap
Procedure: as §4, §5

ME-21-0028 = test: Cell viability, skin melanoma PDX ME-21-0028
Procedure: as §1, §2, §6, §7

ST-02-0007 = test: Cell viability, stomach PDX ST-02-0007
Procedure: as §1, §2, §3

ST-02-0322 = test: Cell viability, stomach PDX ST-02-0322
Procedure: as §1, §2, §3

[1] = lymphoma PDX LY-24-0340, read-out: IC50
[2] = skin melanoma PDX ME-21-0028, read-out: IC50

Row | SMILES | IC50 (CH-17-0091) [µM] | IC50 (CH-17-0098) [µM] | IC50 (BR-05-0014E) [µM] | IC50 (CO-04-0722) [µM] | IC50 (ES-06-0002) [µM] | IC50 (LU-01-0027) [µM] | IC50 (LU-01-0604) [µM] | IC50 (LU-01-0004) [µM] | IC50 (LY-24-0340; [1]) [µM] | IC50 (OVXF 899) [µM] | IC50 (PC-07-0045) [µM] | IC50 (ONCap) [µM] | IC50 (ME-21-0028; [2]) [µM] | IC50 (ST-02-0007) [µM] | IC50 (ST-02-0322) [µM] | other results
1 | COc1c(O)ccc2c(=O)c(O)c(-c3ccc(CCCC[P+](c4ccccc4)(c4ccccc4)c4ccccc4)cc3)oc12 [SND190, (4-(4-(3,7-Dihydroxy-8-methoxy-4-oxo-4H1-chromen-2-yl)phenyl)butyl)triphenylphosphonium bromide] | 4 | 4 | 6.6 | 4.4 | 4.9 | 4 | 2 | 5.4 | 3.8 | 8.76 | 3.4 | 1.5 | 2.2 | 5.7 | 6.3 | IC50 (SF-268; Homo sapiens): 4.1 µM; IC50 (MDA-MB-468; Homo sapiens): 0.3 µM; IC50 (HCT-116; Homo sapiens): 0.81 µM; IC50 (LoVo; Homo sapiens): 2.49 µM; IC50 (KM-12; Homo sapiens, KM12): 1.7 µM; IC50 (LY-24-0340; Table 16, read-out: IC50, lymphoma PDX growth): < 5 µM; IC50 (ME-21-0028; text summary of Table 21, read-out: IC50, skin melanoma PDX growth): < 20 µM
2 | O=c1cc(-c2ccc(CCC[P+](c3ccccc3)(c3ccccc3)c3ccccc3)cc2)oc2c(O)c(O)ccc12 [SND200, (3-(4-(7,8-Dihydroxy-4-oxo-4H1-chromen-2-yl)phenyl)propyl)triphenylphosphonium bromide] | 9.5 | 7.5 | 19 | 9.8 | 11.6 | 1.8 | 7.8 | 9.8 | 4 | 6.37 | 2.3 | 0.52 | 10.9 | 9.4 | 8.5 | IC50 (SF-268): 7.83 µM; IC50 (MDA-MB-468): 0.3 µM; IC50 (HCT-116): 1.48 µM; IC50 (LoVo): 0.64 µM; IC50 (KM-12): 0.44 µM
